The target in experiment [1] is WRN (BV08), human Werner helicase (Uniprot Q14191, amino acids 517-1235 with L1074F point mutation) (Homo sapiens (Human), UniProt Q14191, L1074F). Kind of experiment: WRN (BV08) ADP-Glo assay. Format: biochemical. The settings on record: class symbols A-E, read-out: ADP-Glo_hWRN_IC50. On the technique in general: ADP-Glo first removes unused ATP, then detects ADP through luciferase.

For experiment [2], the system named is p21 induction in HCT116 cells. Kind of experiment: p21 induction in HCT116 cells. Format: cell-based. The note with it: HCT116 cells, 24 h compound incubation, read-out: P21_EC50. An outline of the steps:
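HCT116 cells, 2,000/well, treated 24 h at 37 °C with 11-point compound dilutions in duplicate. Fixed, then immunostained for p21 and GAPDH and read by near-IR imaging at 800/700 nm. Normalized to DMSO (low) and reference WRN inhibitor (high) controls; EC50 from non-linear regression.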

Where two headings read alike, the source gives them in different places. Where only a bound is given, the exact number is not on record here.

Sequence of WRN (BV08), human Werner helicase (Uniprot Q14191, amino acids 517-1235 with L1074F point mutation) (Q14191 other isoform, or with tags, fused parts or gaps L1074F (already in the parent)): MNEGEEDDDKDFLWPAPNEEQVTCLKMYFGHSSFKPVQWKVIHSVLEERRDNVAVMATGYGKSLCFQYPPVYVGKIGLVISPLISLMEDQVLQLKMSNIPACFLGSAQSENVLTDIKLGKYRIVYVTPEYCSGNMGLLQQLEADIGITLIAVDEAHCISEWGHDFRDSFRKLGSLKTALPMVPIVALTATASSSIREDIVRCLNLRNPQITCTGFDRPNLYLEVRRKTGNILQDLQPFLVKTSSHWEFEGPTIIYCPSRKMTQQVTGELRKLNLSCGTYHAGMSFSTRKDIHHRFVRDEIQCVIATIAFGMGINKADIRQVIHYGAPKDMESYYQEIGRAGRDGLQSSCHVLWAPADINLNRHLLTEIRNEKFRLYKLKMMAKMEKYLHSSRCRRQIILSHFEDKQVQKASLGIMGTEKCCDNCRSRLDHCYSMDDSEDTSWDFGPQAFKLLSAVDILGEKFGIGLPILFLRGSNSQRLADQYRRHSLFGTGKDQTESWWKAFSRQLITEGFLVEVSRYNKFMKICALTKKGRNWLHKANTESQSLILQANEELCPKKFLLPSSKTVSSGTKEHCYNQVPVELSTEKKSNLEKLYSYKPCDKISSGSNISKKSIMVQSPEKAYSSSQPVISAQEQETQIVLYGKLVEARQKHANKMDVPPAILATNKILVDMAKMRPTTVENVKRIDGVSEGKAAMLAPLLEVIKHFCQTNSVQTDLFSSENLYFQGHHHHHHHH

Take `CCc1c(N2CCN(C(=O)c3c(OC)ncc(C)c3O)C[C@@H]2C)c(=O)c2nc(N3CC[C@H]4C[C@H]43)cnc2n1CC(=O)Nc1ccc(C(F)(F)F)cc1Cl` (single isomer, unassigned) [I-231]: the IC50 in experiment [1] was 5 to 50 nM. Moreover, the EC50 in experiment [2] (Homo sapiens, HCT-116, 24 h) is less than 500 nM.

In the case of `CCc1c(N2CCN(C(=O)c3c(OC)ncc(C)c3O)C[C@@H]2C)c(=O)c2nc(N3CC[C@@H]4C[C@@H]43)cnc2n1CC(=O)Nc1ccc(C(F)(F)F)cc1Cl` (single isomer, unassigned) [I-232], in experiment [1], the IC50 fell in the range of 5 to 50 nM. Besides, the EC50 in experiment [2] (Homo sapiens, HCT-116, 24 h) is less than 500 nM.

Consider `CCc1c(N2CCN(C(=O)c3ncnc(C)c3O)[C@H](C)[C@H]2C)c(=O)c2nc(N(C)C)cnc2n1CC(=O)Nc1ccc(C(F)(F)F)cc1Cl` (single isomer, unassigned) [I-233, N-(2-chloro-4-(trifluoromethyl)phenyl)-2-(2-(dimethylamino)-6-ethyl-7-(4-(5-hydroxy-6-methylpyrimidine-4-carbonyl)-2,3-dimethylpiperazin-1-yl)-8-oxopyrido[2,3-b]pyrazin-5(8H)-yl)acetamide], for which the IC50 in experiment [1] fell in the range of 5 to 50 nM. Moreover, the EC50 in experiment [2] (Homo sapiens, HCT-116, 24 h) was greater than 5000 nM.

In the case of `CCc1c(N2CCN(C(=O)c3ncnc(C)c3O)[C@@H](C)[C@@H]2C)c(=O)c2nc(N(C)C)cnc2n1CC(=O)Nc1ccc(C(F)(F)F)cc1Cl` (single isomer, unassigned) [I-234, N-(2-chloro-4-(trifluoromethyl)phenyl)-2-(2-(dimethylamino)-6-ethyl-7-(4-(5-hydroxy-6-methylpyrimidine-4-carbonyl)-2,3-dimethylpiperazin-1-yl)-8-oxopyrido[2,3-b]pyrazin-5(8H)-yl)acetamide], the IC50 in experiment [1] was 5 to 50 nM. Also, in experiment [2] (Homo sapiens, HCT-116, 24 h), the EC50 was in the range of 500 to 2000 nM.

Turning to `CCc1c(N2CCN(C(=O)c3ncnc(C)c3O)CC2)c(=O)c2nc([C@H]3CC3(F)F)cnc2n1CC(=O)Nc1ccc(C(F)(F)F)cc1Cl` (single isomer, unassigned) [I-238], the IC50 in experiment [1] was 5 to 50 nM. Also, the EC50 in experiment [2] (Homo sapiens, HCT-116, 24 h) was greater than 5000 nM.

Take `CCc1c(N2C[C@@H]3CC[C@H]2CN3C(=O)c2ncnc(C)c2O)c(=O)c2nc(N(C)C)cnc2n1CC(=O)Nc1ccc(C(F)(F)F)cc1Cl` (single isomer, unassigned) [I-247, N-(2-chloro-4-(trifluoromethyl)phenyl)-2-(2-(dimethylamino)-6-ethyl-7-(5-(5-hydroxy-6-methylpyrimidine-4-carbonyl)-2,5-diazabicyclo[2.2.2]octan-2-yl)-8-oxopyrido[2,3-b]pyrazin-5(8H)-yl)acetamide]: the IC50 in experiment [1] is 100 to 500 nM. In addition, the EC50 in experiment [2] (Homo sapiens, HCT-116, 24 h) is greater than 5000 nM.

As for `CCc1c(N2CCN(C(=O)c3c(OC)ncc(C)c3O)[C@@H]3CCC[C@@H]32)c(=O)c2nc(N(C)C)cnc2n1CC(=O)Nc1ccc(C(F)(F)F)cc1Cl` (single isomer, unassigned) [I-251, N-(2-chloro-4-(trifluoromethyl)phenyl)-2-(2-(dimethylamino)-6-ethyl-7-(4-(4-hydroxy-2-methoxy-5-methylnicotinoyl)octahydro-1H-cyclopenta[b]pyrazin-1-yl)-8-oxopyrido[2,3-b]pyrazin-5(8H)-yl)acetamide], the IC50 in experiment [1] is 5 to 50 nM. Moreover, the EC50 in experiment [2] (Homo sapiens, HCT-116, 24 h) is less than 500 nM.

Turning to `CCc1c(N2CCN(C(=O)c3c(OC)ncc(C)c3O)[C@H]3CCC[C@H]32)c(=O)c2nc(N(C)C)cnc2n1CC(=O)Nc1ccc(C(F)(F)F)cc1Cl` (single isomer, unassigned) [I-252, N-(2-chloro-4-(trifluoromethyl)phenyl)-2-(2-(dimethylamino)-6-ethyl-7-(4-(4-hydroxy-2-methoxy-5-methylnicotinoyl)octahydro-1H-cyclopenta[b]pyrazin-1-yl)-8-oxopyrido[2,3-b]pyrazin-5(8H)-yl)acetamide], the IC50 in experiment [1] lay within 100 to 500 nM. For the same molecule, in experiment [2] (Homo sapiens, HCT-116, 24 h), the EC50 was in the range of 2000 to 5000 nM.

Regarding `CCc1c(N2C[C@H]3C[C@@H]2CN3C(=O)c2ncnc(C)c2O)c(=O)c2nc(N(C)C)cnc2n1CC(=O)Nc1ccc(C(F)(F)F)cc1Cl` (single isomer, unassigned) [I-256], the IC50 in experiment [1] is 100 to 500 nM. Besides, in experiment [2] (Homo sapiens, HCT-116, 24 h), the EC50 was greater than 5000 nM.

With `CCc1c(N2C[C@H]3C[C@@H]2CN3C(=O)c2ncnc(C)c2O)c(=O)c2nc(N(C)C)cnc2n1CC(=O)Nc1ccc(C(F)(F)F)cc1Cl` (single isomer, unassigned) [I-257], the IC50 in experiment [1] is greater than 500 nM. Besides, the EC50 in experiment [2] is greater than 5000 nM.

`CCc1c([C@@]23CCN(C(=O)c4ncnc(C)c4O)C[C@@H]2C3)c(=O)c2nc(N(C)C)cnc2n1CC(=O)Nc1ccc(C(F)(F)F)cc1Cl` (single isomer, unassigned) [I-276, N-(2-chloro-4-(trifluoromethyl)phenyl)-2-(2-(dimethylamino)-6-ethyl-7-(3-(5-hydroxy-6-methylpyrimidine-4-carbonyl)-3-azabicyclo[4.1.0]heptan-6-yl)-8-oxopyrido[2,3-b]pyrazin-5(8H)-yl)acetamide]: the IC50 in experiment [1] lay within 5 to 50 nM. Also, the EC50 in experiment [2] (Homo sapiens, HCT-116, 24 h) fell in the range of 500 to 2000 nM.

For `CCc1c([C@]23CCN(C(=O)c4ncnc(C)c4O)C[C@H]2C3)c(=O)c2nc(N(C)C)cnc2n1CC(=O)Nc1ccc(C(F)(F)F)cc1Cl` (single isomer, unassigned) [I-277, N-(2-chloro-4-(trifluoromethyl)phenyl)-2-(2-(dimethylamino)-6-ethyl-7-(3-(5-hydroxy-6-methylpyrimidine-4-carbonyl)-3-azabicyclo[4.1.0]heptan-6-yl)-8-oxopyrido[2,3-b]pyrazin-5(8H)-yl)acetamide], the IC50 in experiment [1] was 5 to 50 nM. Also, the EC50 in experiment [2] (Homo sapiens, HCT-116, 24 h) lay in the range of 500 to 2000 nM.

Take `CCc1c(N2CCN(C(=O)c3ncnc(C)c3O)C3COCC32)c(=O)c2nc(N(C)C)cnc2n1CC(=O)Nc1ccc(C(F)(F)F)cc1Cl` (single isomer, unassigned) [I-278, N-(2-chloro-4-(trifluoromethyl)phenyl)-2-(2-(dimethylamino)-6-ethyl-7-(4-(5-hydroxy-6-methylpyrimidine-4-carbonyl)hexahydrofuro[3,4-b]pyrazin-1(2H)-yl)-8-oxopyrido[2,3-b]pyrazin-5(8H)-yl)acetamide]: in experiment [1], the IC50 was in the range of 5 to 50 nM. Also, the EC50 in experiment [2] was 2000 to 5000 nM.

With `CCc1c(N2CCN(C(=O)c3ncnc(C)c3O)C3COCC32)c(=O)c2nc(N(C)C)cnc2n1CC(=O)Nc1ccc(C(F)(F)F)cc1Cl` (single isomer, unassigned) [I-279, N-(2-chloro-4-(trifluoromethyl)phenyl)-2-(2-(dimethylamino)-6-ethyl-7-(4-(5-hydroxy-6-methylpyrimidine-4-carbonyl)hexahydrofuro[3,4-b]pyrazin-1(2H)-yl)-8-oxopyrido[2,3-b]pyrazin-5(8H)-yl)acetamide], the IC50 in experiment [1] was 100 to 500 nM. Further, the EC50 in experiment [2] is greater than 5000 nM.

`CCc1c(N2CCN(C(=O)c3ncnc(C)c3O)C3COCC32)c(=O)c2nc(N(C)C)cnc2n1CC(=O)Nc1ccc(C(F)(F)F)cc1Cl` (single isomer, unassigned) [I-294, N-(2-chloro-4-(trifluoromethyl)phenyl)-2-(2-(dimethylamino)-6-ethyl-7-(4-(5-hydroxy-6-methylpyrimidine-4-carbonyl)hexahydrofuro[3,4-b]pyrazin-1(2H)-yl)-8-oxopyrido[2,3-b]pyrazin-5(8H)-yl)acetamide]: the IC50 in experiment [1] is greater than 500 nM. Moreover, in experiment [2], the EC50 was greater than 5000 nM.

The values are drawn from patent US20250034136A1 (Nimbus Wadjet, Inc., priority 2023, published 2025).
